# “And” between values parts separate entries of the source, which are not always exact repeats. Equal entries are not always repeated. Where two headings read alike, the source gives them in different places.
# Columns and labels:
# aerobic plate count = experiment: Aerobic plate counts (APC) on produce treated in a 4-L tank
# S. typhimurium = S. typhimurium counts on produce (apples, celery, onions, cantaloupes) and in treatment solution, 4-L tank
# yeasts and molds = experiment: Yeast and mold (Y&M) counts on produce and in treatment solution, 4-L tank
# various yeast species = experiment: Effect of levulinic acids plus SDS at 21° C. on various yeast species; assay type: cell-based; settings: for Yeast counts at min: 1: 1 min; for Yeast counts at min: 2: 2 min; for Yeast counts at min: 5: 5 min; for Yeast counts at min: 10: 10 min; for Yeast counts at min: 20: 20 min; for Yeast counts at min: 30: 30 min; for Yeast counts at min: 60: 60 min
# L. monocytogenes = assay type: cell-based, Listeria monocytogenes; settings: 21° C.
# [1] = system: spores of Bacillus anthracis Sterne; assay type: cell-based, Bacillus anthracis Sterne (34F2)
# S. typhimurium DT 104 = assay type: cell-based, Salmonella typhimurium DT104; settings: water, 21° C.
# S. enteritidis = experiment: Reduction of S. enteritidis in water treated with organic acids and SDS; assay type: cell-based, Salmonella enteritidis
compound,measurement,setting,value
acidified sodium chlorite [50 ppm acidified sodium chlorite],reduction of APC on onions,aerobic plate count,< 0.5 log CFU per onion
same,reduction of S. typhimurium on onions,S. typhimurium,< 0.5 log CFU per onion
same,reduction of yeast and mold counts on onions,yeasts and molds,< 0.5 log CFU per onion
CCCCCCCCCCCCOS(=O)(=O)[O-].[Na+] [1.0% SDS],Yeast counts at min: 1,various yeast species; Candida magnoliae,3.5 log CFU/ml
same,Yeast counts at min: 2,various yeast species; Candida magnoliae,3.3 log CFU/ml
same,Yeast counts at min: 5,various yeast species; Candida magnoliae,3.2 log CFU/ml
same,Yeast counts at min: 10,various yeast species; Candida magnoliae,3.2 log CFU/ml
same,Yeast counts at min: 20,various yeast species; Candida magnoliae,2.7 log CFU/ml
same,Yeast counts at min: 30,various yeast species; Candida magnoliae,3.0 log CFU/ml
same,Yeast counts at min: 60,various yeast species; Candida magnoliae,3.1 log CFU/ml
same,Yeast counts at min: 1,various yeast species; Debaryomyces hansenii,4.5 log CFU/ml
same,Yeast counts at min: 2,various yeast species; Debaryomyces hansenii,4.1 log CFU/ml
same,Yeast counts at min: 5,various yeast species; Debaryomyces hansenii,4.5 log CFU/ml
same,Yeast counts at min: 10,various yeast species; Debaryomyces hansenii,4.4 log CFU/ml
same,Yeast counts at min: 20,various yeast species; Debaryomyces hansenii,4.5 log CFU/ml
same,Yeast counts at min: 30,various yeast species; Debaryomyces hansenii,4.5 log CFU/ml
same,Yeast counts at min: 60,various yeast species; Debaryomyces hansenii,4.4 log CFU/ml
same,Yeast counts at min: 1,various yeast species; Geotrichum candidum,3.8 log CFU/ml
same,Yeast counts at min: 2,various yeast species; Geotrichum candidum,3.3 log CFU/ml
same,Yeast counts at min: 5,various yeast species; Geotrichum candidum,3.5 log CFU/ml
same,Yeast counts at min: 10,various yeast species; Geotrichum candidum,3.7 log CFU/ml
same,Yeast counts at min: 20,various yeast species; Geotrichum candidum,3.5 log CFU/ml
same,Yeast counts at min: 30,various yeast species; Geotrichum candidum,3.4 log CFU/ml
same,Yeast counts at min: 60,various yeast species; Geotrichum candidum,3.3 log CFU/ml
same,Yeast counts at min: 1,various yeast species; Saccharomyces cerevisiae,2.4 log CFU/ml
same,Yeast counts at min: 2,various yeast species; Saccharomyces cerevisiae,2.6 log CFU/ml
same,Yeast counts at min: 5,various yeast species; Saccharomyces cerevisiae,2.3 log CFU/ml
same,Yeast counts at min: 10,various yeast species; Saccharomyces cerevisiae,2.8 log CFU/ml
same,Yeast counts at min: 20,various yeast species; Saccharomyces cerevisiae,2.7 log CFU/ml
same,Yeast counts at min: 30,various yeast species; Saccharomyces cerevisiae,2.3 log CFU/ml
same,Yeast counts at min: 60,various yeast species; Saccharomyces cerevisiae,2.4 log CFU/ml
same,Yeast counts at min: 1,various yeast species; Zygosaccharomyces bailii,4.7 log CFU/ml
same,Yeast counts at min: 2,various yeast species; Zygosaccharomyces bailii,4.6 log CFU/ml
same,Yeast counts at min: 5,various yeast species; Zygosaccharomyces bailii,4.6 log CFU/ml
same,Yeast counts at min: 10,various yeast species; Zygosaccharomyces bailii,4.6 log CFU/ml
same,Yeast counts at min: 20,various yeast species; Zygosaccharomyces bailii,4.5 log CFU/ml
same,Yeast counts at min: 30,various yeast species; Zygosaccharomyces bailii,4.5 log CFU/ml
same,Yeast counts at min: 60,various yeast species; Zygosaccharomyces bailii,4.4 log CFU/ml
CC(=O)CCC(=O)O [2.0% levulinic acids],Yeast counts at min: 1,various yeast species; Candida magnoliae,5.9 log CFU/ml
same,Yeast counts at min: 2,various yeast species; Candida magnoliae,5.9 log CFU/ml
same,Yeast counts at min: 5,various yeast species; Candida magnoliae,5.9 log CFU/ml
same,Yeast counts at min: 10,various yeast species; Candida magnoliae,6.0 log CFU/ml
same,Yeast counts at min: 20,various yeast species; Candida magnoliae,6.0 log CFU/ml
same,Yeast counts at min: 30,various yeast species; Candida magnoliae,5.9 log CFU/ml
same,Yeast counts at min: 60,various yeast species; Candida magnoliae,5.8 log CFU/ml
"CCCCCCCCCCCCOS(=O)(=O)[O-].[Na+] [SDS, sodium dodecyl sulfate]",L. monocytogenes counts,L. monocytogenes; 0 min,6.6 ± 0.3 log CFU/ml
same,L. monocytogenes counts,L. monocytogenes; 2 min,6.4 ± 0.1 log CFU/ml
same,L. monocytogenes counts,L. monocytogenes; 5 min,6.0 ± 0.1 log CFU/ml
same,L. monocytogenes counts,L. monocytogenes; 10 min,5.0 ± 0.3 log CFU/ml
same,L. monocytogenes counts,L. monocytogenes; 20 min,3.8 ± 0.2 log CFU/ml
same,L. monocytogenes counts,L. monocytogenes; 30 min,3.3 ± 0.1 log CFU/ml
same,CFU % recovery (as compared to control flask F),"[1]; Experiment A3, 10 min",65%
same,CFU % recovery (as compared to control flask F),"[1]; Experiment A3, 45 min",94%
same,CFU % recovery (as compared to control flask F),"[1]; Experiment A3, 180 min",95%
same,CFU % recovery (as compared to control flask F),"[1]; Experiment A4 absent heat, RT, 0 min",85%
same,CFU % recovery (as compared to control flask F),"[1]; Experiment A4 absent heat, RT, 1 h",90%
same,CFU % recovery (as compared to control flask F),"[1]; Experiment A4 absent heat, RT, 2 h",87%
same,CFU % recovery (as compared to control flask F),"[1]; Experiment A4 absent heat, RT, 3 h",98%
same,CFU % recovery (as compared to control flask F),"[1]; Experiment A4 absent heat, RT, 4 h",79%
same,CFU % recovery (as compared to control flask F),"[1]; Experiment A4 with heat, 65° C., 0 min",48%
same,CFU % recovery (as compared to control flask F),"[1]; Experiment A4 with heat, 65° C., 1 h",53%
same,CFU % recovery (as compared to control flask F),"[1]; Experiment A4 with heat, 65° C., 2 h",74%
same,CFU % recovery (as compared to control flask F),"[1]; Experiment A4 with heat, 65° C., 3 h",68%
same,CFU % recovery (as compared to control flask F),"[1]; Experiment A5 with heat, 65° C., 0 min",71%
same,CFU % recovery (as compared to control flask F),"[1]; Experiment A5 with heat, 65° C., 1 h",69%
same,CFU % recovery (as compared to control flask F),"[1]; Experiment A5 with heat, 65° C., 2 h",53%
same,CFU % recovery (as compared to control flask F),"[1]; Experiment A5 with heat, 65° C., 3 h",71%
same,CFU % recovery (as compared to control flask F),"[1]; Experiment A5 with heat, 65° C., 4 h",54%
same,S. typhimurium DT 104 counts,S. typhimurium DT 104; 0 min,7.0 log CFU/ml
same,S. typhimurium DT 104 counts,S. typhimurium DT 104; 1 min,7.0 log CFU/ml
same,S. typhimurium DT 104 counts,S. typhimurium DT 104; 2 min,6.8 log CFU/ml
same,S. typhimurium DT 104 counts,S. typhimurium DT 104; 5 min,6.9 log CFU/ml
same,S. typhimurium DT 104 counts,S. typhimurium DT 104; 10 min,6.8 log CFU/ml
same,S. typhimurium DT 104 counts,S. typhimurium DT 104; 20 min,6.9 log CFU/ml
same,S. typhimurium DT 104 counts,S. typhimurium DT 104; 30 min,6.9 log CFU/ml
same,S. typhimurium DT 104 counts,S. typhimurium DT 104; 60 min,6.9 log CFU/ml
same,Salmonella reduction,S. enteritidis,did not reduce
same,S. enteritidis counts,S. enteritidis; sulfate,7.1 log CFU/ml and 7.0 log CFU/ml and 7.2 log CFU/ml
"CC(=O)O [0.5% acetic acid, acetic acid]",S. enteritidis counts,"S. enteritidis; water, 21° C., 0 min",7.1 log CFU/ml
same,S. enteritidis counts,"S. enteritidis; water, 21° C., 2 min",7.0 log CFU/ml
same,S. enteritidis counts,"S. enteritidis; water, 21° C., 5 min",6.8 log CFU/ml
same,S. enteritidis counts,"S. enteritidis; water, 21° C., 10 min",6.7 log CFU/ml
same,S. enteritidis counts,"S. enteritidis; water, 21° C., 20 min",6.6 log CFU/ml
same,S. enteritidis counts,"S. enteritidis; water, 21° C., 30 min",6.5 log CFU/ml
CC(=O)CCC(=O)O [2% levulinic acid],Yeast counts at min: 1,various yeast species; Zygosaccharomyces bailii,5.4 log CFU/ml
same,Yeast counts at min: 2,various yeast species; Zygosaccharomyces bailii,5.5 log CFU/ml
same,Yeast counts at min: 5,various yeast species; Zygosaccharomyces bailii,5.4 log CFU/ml
same,Yeast counts at min: 10,various yeast species; Zygosaccharomyces bailii,5.4 log CFU/ml
same,Yeast counts at min: 20,various yeast species; Zygosaccharomyces bailii,5.4 log CFU/ml
same,Yeast counts at min: 30,various yeast species; Zygosaccharomyces bailii,5.4 log CFU/ml
same,Yeast counts at min: 60,various yeast species; Zygosaccharomyces bailii,5.3 log CFU/ml
